Results on three molecules are retold here after patent publication US20220177538A1, “CO-AGONISTS AT GLP-1 AND GIP RECEPTORS SUITABLE FOR ORAL DELIVERY” (Novo Nordisk A/S, priority 2020, published 2022).

Series [1] can be described thus: Pharmacokinetic study in minipigs after i.v. administration. The following applies: female, Göttingen, minipig, in vivo, iv. On the procedure:
The purpose of this example is to determine the half-life in vivo of the derivatives of the present invention after i.v. administration to minipigs, i.e. the prolongation of their time in the body and thereby their time of action. This is done in a pharmacokinetic (PK) study, where the terminal half-life of the derivative in question is determined. By terminal half-life is generally meant the period of time it takes to halve a certain plasma concentration, measured after the initial distribution phase.
Female Göttingen minipigs were obtained from Ellegaard Göttingen Minipigs (Dalmose, Denmark) approximately 7-14 months of age and weighing from approximately 16-35 kg were used in the studies. The minipigs were housed individually and fed restrictedly once daily with SDS minipig diet (Special Diets Services, Essex, UK).
After at 3 weeks of acclimatisation two permanent central venous catheters were implanted in vena cava caudalis in each animal. The animals were allowed 1 week recovery after the surgery, and were then used for repeated pharmacokinetic studies with a suitable wash-out period between successive derivative dosing.
The animals were fasted for approximately 18 hours before dosing and from 0 to 4 hours after dosing but had adlibitum access to water during the whole period.
The sodium salts of compounds of Examples 1 were dissolved to a concentration of 20-40 nmol/mL in a buffer containing 0.007% polysorbate 20, 50 mM sodium phosphate, 70 mM sodium chloride, pH 7.4. […]
Plasma was pipetted into Micronic tubes on dry ice and kept at −20° C. until analysed for plasma concentration of the compounds using ELISA, or a similar antibody-based assay, or LCMS. Individual plasma concentration-time profiles were analysed by a non-compartmental model in Phoenix WinNonLin ver. […] (Pharsight Inc., Mountain View, Calif., USA), and the resulting terminal half-lives (harmonic mean) determined.

Series [2] is described as follows: Pharmacokinetic study in dogs after oral dosing of tablets with SNAC. The following applies: for half-life / Tmax: male. It counts as in vivo, Beagle dogs. Summed up: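 The tablets held 3-4 mg compound plus 100-300 mg SNAC and were given to fasted male beagles (6-8 per group); non-compartmental PK per animal.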
Setting [3] is: oral tablet, SNAC 300 mg, test substance 3 mg, Beagle dogs, arithmetic mean.

Molecules are shown by their SMILES. Where two headings read alike, the source gives them in different places. Marks after values point to notes of the source that are not given here. Starred links: 1 amine or outer side, 2 acyl side, 3 side chain; linkers in the order of their positions; H or OH if unused. Non-standard residues stand in square brackets, D forms with d. Residues, ends and D or L forms follow the SMILES beside them. Groups on a side chain read outwards from the residue. *: point of attachment. C18 diacid = O=C(O)CCCCCCCCCCCCCCCCC(=O)*; γGlu = O=C(O)[C@H](CCC(=O)[*:2])N[*:1]; εLys = N[C@@H](CCCCN[*:1])C(=O)[*:2]; Aib = CC(C)(N)C(=O)O

As a reminder, the Tmax is the time at which the peak concentration occurs. As for `CC[C@H](C)[C@H](NC(=O)[C@H](Cc1ccccc1)NC(=O)[C@H](CCC(=O)O)NC(=O)[C@H](CCCNC(=N)N)NC(=O)[C@H](C)NC(=O)[C@H](C)NC(=O)[C@H](CCC(N)=O)NC(=O)[C@H](CCCCNC(=O)[C@@H](N)CCCCNC(=O)[C@@H](N)CCCCNC(=O)CC[C@H](NC(=O)CCCCCCCCCCCCCCCCC(=O)O)C(=O)O)NC(=O)[C@H](CCC(=O)O)NC(=O)[C@H](CC(C)C)NC(=O)[C@H](CC(C)C)NC(=O)[C@@H](NC(=O)[C@H](CO)NC(=O)[C@H](Cc1ccc(O)cc1)NC(=O)[C@H](CC(=O)O)NC(=O)[C@H](CO)NC(=O)[C@@H](NC(=O)[C@H](Cc1ccccc1)NC(=O)[C@@H](NC(=O)CNC(=O)[C@H](CCC(=O)O)NC(=O)C(C)(C)NC(=O)[C@@H](N)Cc1ccc(O)cc1)[C@@H](C)O)[C@@H](C)O)[C@@H](C)CC)C(=O)N[C@@H](CCC(=O)O)C(=O)N[C@@H](Cc1c[nH]c2ccccc12)C(=O)N[C@@H](CC(C)C)C(=O)N[C@@H](CC(C)C)C(=O)N[C@@H](CCCNC(=N)N)C(=O)NCC(=O)NCC(=O)N1CCC[C@H]1C(=O)N[C@@H](CCC(=O)O)C(=O)N[C@@H](CO)C(=O)NCC(=O)N[C@@H](C)C(=O)N1CCC[C@H]1C(=O)N1CCC[C@H]1C(=O)N1CCC[C@H]1C(=O)N[C@@H](CO)C(=O)O` [Compound 28] (H-Y[Aib]EGTFTSDYSILLEK([εLys-εLys-γGlu-C18 diacid])QAAREFIEWLLRGGPESGAPPPS-OH), the half-life in series [1] (i.v. administration to minipigs, harmonic mean, read-out: Terminal half-life t1/2 (converted)) was 35 h; in series [2] (dog, in vivo, oral tablet, SNAC 300 mg, test substance 3 mg, Beagle dogs, harmonic mean, read-out: t1/2 (converted)), 67 h. Besides, in series [2] (dog, in vivo, oral tablet, SNAC 300 mg, test substance 3 mg, Beagle dogs, median, read-out: Tmax), the time to peak (Tmax) was 1.3 h. Also, the AUC/Dose in series [2] (setting [3]) is 18.6** kg * h/L. In addition, the Cmax/Dose in series [2] (setting [3]) was 0.36** kg/L.
Turning to `CC[C@H](C)[C@H](NC(=O)[C@H](Cc1ccccc1)NC(=O)[C@H](CCC(=O)O)NC(=O)[C@H](CCCNC(=N)N)NC(=O)[C@H](C)NC(=O)[C@H](C)NC(=O)[C@H](CCC(N)=O)NC(=O)[C@H](CCCCNC(=O)[C@@H](N)CCCCNC(=O)[C@@H](N)CCCCNC(=O)CC[C@H](NC(=O)CCCCCCCCCCCCCCCCC(=O)O)C(=O)O)NC(=O)[C@H](CCC(=O)O)NC(=O)[C@H](CC(C)C)NC(=O)[C@H](CC(C)C)NC(=O)[C@@H](NC(=O)[C@H](CO)NC(=O)[C@H](Cc1ccc(O)cc1)NC(=O)[C@H](CC(=O)O)NC(=O)[C@H](CO)NC(=O)[C@@H](NC(=O)[C@H](Cc1ccccc1)NC(=O)[C@@H](NC(=O)CNC(=O)[C@H](CCC(=O)O)NC(=O)C(C)(C)NC(=O)[C@@H](N)Cc1ccc(O)cc1)[C@@H](C)O)[C@@H](C)O)[C@@H](C)CC)C(=O)N[C@@H](CCC(=O)O)C(=O)N[C@@H](Cc1c[nH]c2ccccc12)C(=O)N[C@@H](CC(C)C)C(=O)N[C@@H](CC(C)C)C(=O)N[C@@H](C)C(=O)NCC(=O)NCC(=O)N1CCC[C@H]1C(=O)N[C@@H](CO)C(=O)N[C@@H](CO)C(=O)NCC(=O)N[C@@H](C)C(=O)N1CCC[C@H]1C(=O)N1CCC[C@H]1C(=O)N1CCC[C@H]1C(=O)N[C@@H](CO)C(=O)O` [Compound 31] (H-Y[Aib]EGTFTSDYSILLEK([εLys-εLys-γGlu-C18 diacid])QAAREFIEWLLAGGPSSGAPPPS-OH), the half-life in series [1] was 49 h. In series [2] (dog, in vivo, po), the AUC/Dose is recorded as 17.9** kg * h/L and the Cmax/Dose is 0.35** kg/L. In addition, in series [2] (Beagle, dog, in vivo, po), the Tmax is 1.3 h and the half-life was 56 h.
For `CC[C@H](C)[C@H](NC(=O)[C@H](Cc1ccccc1)NC(=O)[C@H](CCC(=O)O)NC(=O)[C@H](CCC(N)=O)NC(=O)[C@H](C)NC(=O)[C@H](C)NC(=O)[C@H](CCC(N)=O)NC(=O)[C@H](CCCCNC(=O)[C@@H](N)CCCCNC(=O)[C@@H](N)CCCCNC(=O)CC[C@H](NC(=O)CCCCCCCCCCCCCCCCC(=O)O)C(=O)O)NC(=O)[C@H](CCC(=O)O)NC(=O)[C@H](CC(C)C)NC(=O)[C@H](CC(C)C)NC(=O)[C@@H](NC(=O)[C@H](CO)NC(=O)[C@H](Cc1ccc(O)cc1)NC(=O)[C@H](CC(=O)O)NC(=O)[C@H](CO)NC(=O)[C@@H](NC(=O)[C@H](Cc1ccccc1)NC(=O)[C@@H](NC(=O)CNC(=O)[C@H](CCC(=O)O)NC(=O)C(C)(C)NC(=O)[C@@H](N)Cc1ccc(O)cc1)[C@@H](C)O)[C@@H](C)O)[C@@H](C)CC)C(=O)N[C@@H](CCC(=O)O)C(=O)N[C@@H](Cc1c[nH]c2ccccc12)C(=O)N[C@@H](CC(C)C)C(=O)N[C@@H](CC(C)C)C(=O)N[C@@H](C)C(=O)NCC(=O)NCC(=O)N1CCC[C@H]1C(=O)N[C@@H](CO)C(=O)N[C@@H](CO)C(=O)NCC(=O)N[C@@H](C)C(=O)N1CCC[C@H]1C(=O)N1CCC[C@H]1C(=O)N1CCC[C@H]1C(=O)N[C@@H](CO)C(=O)O` [Compound 29] (H-Y[Aib]EGTFTSDYSILLEK([εLys-εLys-γGlu-C18 diacid])QAAQEFIEWLLAGGPSSGAPPPS-OH) the same measures were 68 h, 16.6** kg * h/L, 0.26** kg/L, 1.2 h and 69 h.
